One test addresses T1, human Factor XIa (Homo sapiens, UniProt P03951).
T1 construct: purified human Factor XIa; purchased Sekisui Diagnostics
The experiment in a line: Factor XIa Assay. Format: biochemical. The settings on record: read-out: F11a IC50. How it is done: The effectiveness of a compound of the present invention as an inhibitor of Coagulation Factor XIa can be determined using a relevant purified serine protease, and an appropriate synthetic substrate. The rate of hydrolysis of the chromogenic or fluorogenic substrate by the relevant serine protease was measured both in the absence and presence of compounds of the present invention. Assays were conducted at room temperature or at 37° C. […] A decrease in the rate of fluorescence change in the presence of inhibitor is indicative of enzyme inhibition. Such methods are known to one skilled in the art. […]
Factor XIa determinations were made in 50 mM HEPES buffer at pH 7.4 containing 150 mM NaCl, 5 mM CaCl2, and 0.1% PEG 8000 (polyethylene glycol; JT Baker or Fisher Scientific). Determinations were made using purified human Factor XIa at a final concentration of 40 pM (Sekisui Diagnostics) and the synthetic substrate, Z-Gly-Pro-Arg-AFC, TFA salt (Sigma #C0980) at a concentration of 100 μM.
Times required to achieve equilibration between enzyme and inhibitor were determined in control experiments. Initial velocities of product formation in the absence (Vo) or presence of inhibitor (Vi) were measured. Assuming competitive inhibition, and that unity is negligible compared Km/[S], [I]/e, and [I]/e (where [S], [I], and e respectively represent the total concentrations, of substrate, inhibitor and enzyme), the equilibrium constant (Ki) for dissociation of the inhibitor from the enzyme can be obtained from the dependence of Vo/Vi on [I] shown in the following equation.

The target in a further test is T2, Human plasma kallikrein (Homo sapiens, UniProt P03952).
T2 construct: yields a heavy chain (371 amino acids) and a light chain (248 amino acids); purchased Enzyme Research Laboratories
The experiment in a line: Kallikrein Assay. Format: biochemical. The note with it: Plasma Kallekrein IC50, read-out: PK IC50. The procedure: The effectiveness of a compound of the present invention as an inhibitor of Kallikrein can be determined using a relevant purified serine protease, and an appropriate synthetic substrate. The rate of hydrolysis of the chromogenic or fluorogenic substrate by the relevant serine protease was measured both in the absence and presence of compounds of the present invention. Assays were conducted at room temperature or at 37° C. […] A decrease in the rate of fluorescence change in the presence of inhibitor is indicative of enzyme inhibition. Such methods are known to one skilled in the art. The results of this assay are expressed as the inhibitory constant, Ki.
Kallikrein determinations were made in 50 mM HEPES buffer at pH 7.4 containing 150 mM NaCl, 5 mM CaCl2, and 0.1% PEG 8000 (polyethylene glycol; Fisher Scientific). Determinations were made using purified Human plasma kallikrein at a final concentration of 0.5 nM (Enzyme Research Laboratories) and the synthetic substrate, Acetyl-K—P—R-AFC (Sigma # C6608) at a concentration of […].
Times required to achieve equilibration between enzyme and inhibitor were determined in control experiments. The reactions were performed under linear progress curve conditions and fluorescence increase measured at 405 Ex/510 Em nm. […] IC50 was determined by inflection point from a four parameter logistic curve fit. Ki was calculated using the Cheng Prusoff equation, Ki=IC50/(1+([S]/Km)).

Where two headings read alike, the source gives them in different places.

Experimental findings from patent US10011585B2, “Factor XIa inhibitors” (Merck Sharp & Dohme Corp., priority 2014, dated 2018) are described below.

T1 sequence (P03951 388-625 limits assumed): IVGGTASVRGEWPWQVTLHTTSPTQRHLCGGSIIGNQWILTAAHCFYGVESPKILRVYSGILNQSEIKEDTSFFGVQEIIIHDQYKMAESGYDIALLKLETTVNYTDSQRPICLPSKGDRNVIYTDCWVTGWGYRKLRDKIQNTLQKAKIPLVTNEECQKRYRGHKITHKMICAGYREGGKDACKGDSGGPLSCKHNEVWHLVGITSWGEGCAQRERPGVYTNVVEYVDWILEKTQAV
T1 sequence (P03951 19-387 partner limits assumed): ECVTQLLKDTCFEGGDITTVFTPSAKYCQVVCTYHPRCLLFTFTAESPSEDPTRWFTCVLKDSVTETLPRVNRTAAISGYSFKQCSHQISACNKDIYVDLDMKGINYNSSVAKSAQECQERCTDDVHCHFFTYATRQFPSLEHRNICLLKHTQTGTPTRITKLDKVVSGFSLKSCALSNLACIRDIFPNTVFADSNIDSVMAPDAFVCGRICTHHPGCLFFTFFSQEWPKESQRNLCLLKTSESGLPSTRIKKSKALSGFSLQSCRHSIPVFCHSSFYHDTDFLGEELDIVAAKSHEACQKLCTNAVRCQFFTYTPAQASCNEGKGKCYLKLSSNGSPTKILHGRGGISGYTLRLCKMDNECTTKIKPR
T2 sequence (P03952 391-638 limits assumed): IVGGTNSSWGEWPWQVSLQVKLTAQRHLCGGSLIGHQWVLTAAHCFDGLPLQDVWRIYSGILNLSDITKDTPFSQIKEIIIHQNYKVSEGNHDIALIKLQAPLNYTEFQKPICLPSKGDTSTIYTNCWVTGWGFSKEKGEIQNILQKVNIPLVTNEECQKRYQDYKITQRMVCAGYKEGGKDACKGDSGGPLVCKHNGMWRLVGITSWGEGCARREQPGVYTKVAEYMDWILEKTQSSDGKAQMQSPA
T2 sequence (P03952 20-390 partner limits assumed): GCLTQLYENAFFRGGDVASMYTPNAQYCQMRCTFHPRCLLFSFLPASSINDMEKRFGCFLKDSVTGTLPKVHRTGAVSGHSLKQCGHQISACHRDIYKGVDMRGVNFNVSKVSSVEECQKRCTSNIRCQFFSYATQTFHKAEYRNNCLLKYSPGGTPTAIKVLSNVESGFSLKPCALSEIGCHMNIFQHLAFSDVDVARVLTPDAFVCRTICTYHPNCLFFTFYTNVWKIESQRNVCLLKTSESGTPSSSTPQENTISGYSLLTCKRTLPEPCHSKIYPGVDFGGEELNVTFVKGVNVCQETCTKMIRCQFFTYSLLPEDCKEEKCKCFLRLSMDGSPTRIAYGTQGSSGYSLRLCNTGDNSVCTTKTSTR

Regarding `O=C(O)c1ccc2[nH]c(C(Cc3ccccc3)c3ccc(-c4cc(Cl)ccc4C(=O)O)c[n+]3[O-])nc2c1` (racemic) [Example 25], the IC50 at human Factor XIa (Examples 20-28 table) came to 0.054 µM; on Human plasma kallikrein (Examples 20-28 table), 2.74 µM.
In the case of `N#Cc1ccc(Cl)cc1-c1ccc(C(Cc2ccccc2)c2nc3cc(C(=O)O)ccc3[nH]2)[n+]([O-])c1` (racemic) [Example 17], the IC50 on human Factor XIa (Examples 1-19 table) turned out to be 0.0382 µM; on Human plasma kallikrein (Examples 1-19 table), 0.335 µM.
On to `[O-][n+]1cc(-c2cc(Cl)ccc2-n2cnnn2)ccc1[C@@H](Cc1ccc(F)cc1)c1nc2cc(F)ccc2[nH]1` [Example 15], for which the values for the IC50 on human Factor XIa (Examples 1-19 table) and at Human plasma kallikrein (Examples 1-19 table) were 0.0047 µM and 0.245 µM, respectively.
As to `[O-][n+]1cc(-c2cc(Cl)ccc2-n2cnnn2)ccc1C(Cc1ccccc1)c1nc2cc(F)ccc2[nH]1` (stereo in doubt) [Example 8, (S)-5-(5-chloro-2-(1H-tetrazol-1-yl)phenyl)-2-(1-(5-fluoro-1H-benzo[d]imidazol-2-yl)-2-phenylethyl)pyridine 1-oxide], the results for the IC50 at human Factor XIa (Examples 1-19 table) and on Human plasma kallikrein (Examples 1-19 table) were 0.00133 µM and 0.124 µM, respectively.
In the same order, the values of `[O-][n+]1cc(-c2cc(Cl)ccc2-n2cnnn2)ccc1C(Cc1ccccc1)c1nc2cc(F)ccc2[nH]1` (racemic) [Example 7, 5-(5-chloro-2-(1H-tetrazol-1-yl)phenyl)-2-(1-(5-fluoro-1H-benzo[d]imidazol-2-yl)-2-phenylethyl)pyridine 1-oxide] are 0.00115 µM and 0.186 µM.
With `NC(=O)c1ccc(Cl)cc1-c1ccc([C@H](Cc2ccccc2)c2nc3cc(F)ccc3[nH]2)[n+]([O-])c1` [Example 23, (S)-5-(2-carbamoyl-5-chlorophenyl)-2-(1-(5-fluoro-1H-benzo[d]imidazol-2-yl)-2-phenylethyl)pyridine 1-oxide], the IC50 at human Factor XIa (Examples 20-28 table) came out at 1 µM.
`O=C(O)c1ccc2[nH]c([C@@H](Cc3ccccc3)c3ccc(-c4cc(Cl)ccc4-n4cnnn4)c[n+]3[O-])nc2c1` [Example 5, (S)-2-(1-(5-Carboxy-1H-benzo[d]imidazol-2-yl)-2-phenylethyl)-5-(5-chloro-2-(1H-tetrazol-1-yl)phenyl)pyridine 1-oxide]: the IC50 on human Factor XIa (Examples 1-19 table) came to 0.00341 µM; at Human plasma kallikrein (Examples 1-19 table), 0.216 µM.
In the case of `O=C(O)c1ccc2nc(C(CC3CC3)c3ccc(-c4cc(Cl)ccc4-n4cnnn4)c[n+]3[O-])[nH]c2c1` (racemic) [Example 24, 2-(1-(5-carboxy-1H-benzo[d]imidazol-2-yl)-2-cyclopropylethyl)-5-(5-chloro-2-(1H-tetrazol-1-yl)phenyl)pyridine 1-oxide], the IC50 at human Factor XIa (Examples 20-28 table) turned out to be 0.0142 µM.
On to `NC(=O)c1ccc(Cl)cc1-c1ccc([C@@H](Cc2ccccc2)c2nc3cc(F)ccc3[nH]2)[n+]([O-])c1` [Example 22, (R)-5-(2-carbamoyl-5-chlorophenyl)-2-(1-(5-fluoro-1H-benzo[d]imidazol-2-yl)-2-phenylethyl)pyridine 1-oxide], for which, on human Factor XIa (Examples 20-28 table), the IC50 stood at 0.154 µM.
On to `[O-][n+]1cc(-c2c(F)ccc(Cl)c2F)ccc1C(Cc1ccccc1)c1nc2cc(F)ccc2[nH]1` (racemic) [Example 10], for which the IC50 on human Factor XIa (Examples 1-19 table) is 1.25 µM.
In the case of `O=C(O)c1ccc2[nH]c([C@H](Cc3ccccc3)c3ccc(-c4cc(Cl)ccc4-n4cnnn4)c[n+]3[O-])nc2c1` [Example 6, (R)-2-(1-(5-Carboxy-1H-benzo[d]imidazol-2-yl)-2-phenylethyl)-5-(5-chloro-2-(1H-tetrazol-1-yl)phenyl)pyridine 1-oxide], the IC50 amounted to 0.00051 µM at human Factor XIa (Examples 1-19 table) and 0.0284 µM on Human plasma kallikrein (Examples 1-19 table).
With `O=C(O)c1ccc2[nH]c(C(Cc3ccccc3)c3ccc(-c4c(F)ccc(Cl)c4F)c[n+]3[O-])nc2c1` (stereo in doubt) [Example 2, (S)-2-(1-(5-Carboxy-1H-benzo[d]imidazol-2-yl)-2-phenylethyl)-5-(3-chloro-2,6-difluorophenyl)pyridine 1-oxide], the 50% inhibitory concentration (IC50) came out at 0.0462 µM on human Factor XIa (Examples 1-19 table) and 0.182 µM at Human plasma kallikrein (Examples 1-19 table).
For `[O-][n+]1cc(-c2cc(Cl)ccc2-n2cnnn2)ccc1[C@H](Cc1ccc(F)cc1)c1nc2cc(F)ccc2[nH]1` [Example 14], the results for the IC50 on human Factor XIa (Examples 1-19 table) and at Human plasma kallikrein (Examples 1-19 table) were 0.0897 µM and 0.809 µM, respectively.
With `O=C(O)c1ccc2nc(C(CC(=O)N3CCC3)c3ccc(-c4c(F)ccc(Cl)c4F)c[n+]3[O-])[nH]c2c1` (racemic) [Example 26], the IC50 at human Factor XIa (Examples 20-28 table) was 7.93 µM.
`O=C(O)c1ccc2[nH]c(C(Cc3ccccc3)c3ccc(-c4c(F)ccc(Cl)c4F)c[n+]3[O-])nc2c1` (stereo in doubt) [Example 3, (R)-2-(1-(5-Carboxy-1H-benzo[d]imidazol-2-yl)-2-phenylethyl)-5-(3-chloro-2,6-difluorophenyl)pyridine 1-oxide]: the IC50 on human Factor XIa (Examples 1-19 table) came to 0.138 µM; at Human plasma kallikrein (Examples 1-19 table), 0.182 µM.
Turning to `[O-][n+]1cc(-c2cc(Cl)ccc2-n2cnnn2)ccc1C(Cc1ccccc1)c1nc2cc(F)ccc2[nH]1` (stereo in doubt) [Example 9, (R)-5-(5-chloro-2-(1H-tetrazol-1-yl)phenyl)-2-(1-(5-fluoro-1H-benzo[d]imidazol-2-yl)-2-phenylethyl)pyridine 1-oxide], the IC50 on human Factor XIa (Examples 1-19 table) is 0.00328 µM; on Human plasma kallikrein (Examples 1-19 table) it was 0.295 µM.
Take `N#Cc1ccc2[nH]c(C(Cc3ccccc3)c3ccc(-c4cc(Cl)ccc4-n4cnnn4)c[n+]3[O-])nc2c1` (racemic) [Example 16]: the results for the IC50 at human Factor XIa (Examples 1-19 table) and on Human plasma kallikrein (Examples 1-19 table) were 0.00133 µM and 0.151 µM, respectively.
Consider `O=C(CC(c1nc2ccc(F)cc2[nH]1)c1ccc(-c2cc(Cl)ccc2-n2cnnn2)c[n+]1[O-])N1CCC1` (single isomer, unassigned) [Example 28], for which the IC50 at human Factor XIa (Examples 20-28 table) came out at 0.0937 µM; on Human plasma kallikrein (Examples 20-28 table) it was 1.81 µM.
Take `O=C(CC(c1nc2ccc(F)cc2[nH]1)c1ccc(-c2cc(Cl)ccc2-n2cnnn2)c[n+]1[O-])N1CCC1` (single isomer, unassigned) [Example 27]: the IC50 at human Factor XIa (Examples 20-28 table) was determined as 0.0791 µM.
With `O=C(O)c1ccc2[nH]c(C(Cc3ccccc3)c3ccc(-c4cc(Cl)ccc4-n4cnnn4)c[n+]3[O-])nc2c1` (racemic) [Example 4, 2-(1-(5-Carboxy-1H-benzo[d]imidazol-2-yl)-2-phenylethyl)-5-(5-chloro-2-(1H-tetrazol-1-yl)phenyl)pyridine 1-oxide], the IC50 on human Factor XIa (Examples 1-19 table) was 0.00045 µM; at Human plasma kallikrein (Examples 1-19 table), 0.0527 µM.
In the case of `O=C(O)c1ccc2[nH]c(C(Cc3ccccc3)c3ccc(-c4c(F)ccc(Cl)c4F)c[n+]3[O-])nc2c1` (racemic) [Example 1, 2-(1-(5-Carboxy-1H-benzo[d]imidazol-2-yl)-2-phenylethyl)-5-(3-chloro-2,6-difluorophenyl)pyridine 1-oxide], the concentration for half-maximal inhibition (IC50) on human Factor XIa (Examples 1-19 table) amounted to 0.0892 µM; at Human plasma kallikrein (Examples 1-19 table), 0.293 µM.
With `O=C(O)c1ccc2[nH]c([C@H](Cc3ccc(F)cc3)c3ccc(-c4c(F)ccc(Cl)c4F)c[n+]3[O-])nc2c1` [Example 12], on human Factor XIa (Examples 1-19 table), the IC50 stood at 0.16 µM.
The same measure, in the same setting: the result for `N#Cc1ccc2[nH]c(C(Cc3ccccc3)c3ccc(-c4c(F)ccc(Cl)c4F)c[n+]3[O-])nc2c1` (racemic) [Example 13] reads 1.88 µM.
`[O-][n+]1cc(-c2c(-n3cnnn3)ccc(Cl)c2F)ccc1[C@H](Cc1ccccc1)c1nc2cc(F)ccc2[nH]1` [Example 21, 2-[(1S)-1-{5-[3-chloro-2-fluoro-6-(1H-tetrazol-1-yl)phenyl]-1-oxidopyridin-2-yl}-2-phenylethyl]-5-fluoro-1H-benzimidazole]: the IC50 on human Factor XIa (Examples 20-28 table) was determined as 0.0118 µM; at Human plasma kallikrein (Examples 20-28 table), 0.169 µM.
As for `O=C(O)c1ccc2[nH]c([C@@H](Cc3ccc(F)cc3)c3ccc(-c4c(F)ccc(Cl)c4F)c[n+]3[O-])nc2c1` [Example 11], the half-inhibitory concentration (IC50) at human Factor XIa (Examples 1-19 table) came out at 0.146 µM.
Regarding `[O-][n+]1cc(-c2c(-n3cnnn3)ccc(Cl)c2F)ccc1[C@@H](Cc1ccccc1)c1nc2cc(F)ccc2[nH]1` [Example 20, 2-[(1R)-1-{5-[3-chloro-2-fluoro-6-(1H-tetrazol-1-yl)phenyl]-1-oxidopyridin-2-yl}-2-phenylethyl]-5-fluoro-1H-benzimidazole], the IC50 worked out at 0.00182 µM at human Factor XIa (Examples 20-28 table) and 0.0648 µM on Human plasma kallikrein (Examples 20-28 table).
